{
  "source": "patent US20190231785A1",
  "about": "“PHOSPHODIESTERASE INHIBITOR TREATMENT” (Cyrano Therapeutics, Inc., priority 2012, published 2019)",
  "key": {"[1]": {"test_system": "patients with hyposmia and hypogeusia", "conditions": "oral 200 to 800 mg/d", "method": "(§3) Smell and taste functions under each study condition were measured by standardized psychophysical sensory testing techniques. Measurements included determination of detection thresholds (DTs), recognition thresholds (RTs), magnitude estimation (ME), and hedonic response (HR) for 4 odors (e.g., pyridine [dead fish], nitrobenzene [bitter almond], thiophene [petroleum], and amyl acetate [banana oil]) (olfactometry) and for 4 tastants (e.g., sodium chloride [salt], sucrose [sweet], hydrochloride [sour], and urea [bitter]) (gustometry). […] Each measurement was performed independent of any prior knowledge of response.\n(§4) Values for the oral trial were taken from the last measurements made before discontinuation of oral drug treatment and before initiation of the intranasal trial. This period varied from 2 to 12 months after oral treatment initiation and reflected the maximal improvement in sensory function each patient experienced.\n(§5) The mean and standard error of the mean for all values obtained at each study condition were compared. Differences were considered significant if P<0.05 by the unpaired t test. Paired comparison tests were also used with differences considered significant if P<0.05 by the t test."}, "[2]": {"test_system": "patients with hyposmia and hypogeusia", "conditions": "oral 200 to 800 mg/d", "remark": "listed apart in the source", "method": "as §3, §4, §5"}, "[3]": {"conditions": "asthma and COPD; cited from earlier work"}, "cAMP": {"test_system": "cAMP", "test": "Parotid saliva cAMP before and after oral theophylline (Example 2)", "assay_type": "in vivo, human", "conditions": "for parotid saliva cAMP: mean ± SEM", "experimental": "Parotid saliva was collected from each patient by application of a Lashley cup over Stensen's duct with lingual stimulation by placement of concentrated lemon juice. Saliva was collected in plastic tubes and stored at −20° C. until assayed. cAMP and cGMP were measured in saliva by a sensitive 96 plate spectrophotometric assay (R&D Systems, Minneapolis, Minn.).\n(§1) All patients were placed in a fixed design open label clinical trial with treatment with oral theophylline. Treatment consisted of fixed treatment periods of two-eight months with sequential doses of the drug at 200 mg, 400 mg and 600 mg. At termination of each of these intervals, patients returned to study site for reevaluation. At the end of each interval subjective responses to treatment were measured with a modification of the 0-100 scale previously used (vs). Subjective responses to treatment were graded on a sliding scale from −100-0-+100 with patients recording improvement (+0-+100), no improvement (0) or worsening (0-−100) of their overall smell function. If overall smell function improved ≥5% they were considered to improve clinically (1). If smell function improved <5% they were considered not to improve (1). At the end of each interval subjective measurements of smell function, measurements of DT, RT, ME and H and measurements of parotid saliva for levels of cAMP and cGMP were obtained. In addition, blood plasma was obtained by venipuncture, placed in ice into zinc free tubes which contained 100 mg zinc free heparin, centrifuged at 3000 rpm for 10-20 min, the plasma transferred to plastic PCR tubes and stored at −20° C. until assayed. Theophylline was assayed by a fluorescence polarization assay (Abbott, Chicago, Ill.), as previously described.\n(§2) Data for the cyclic nucleotides from these 31 patients was not analyzed until the entire study of the 312 patients in Example 1 was assembled and analyzed in its entirety. After completion of these analyses, all data for parotid saliva cAMP and cGMP from all patients in whom salivary cAMP and cGMP were obtained were assembled. Levels of salivary cyclic nucleotides varied widely. Initially, without external criteria, there was no way to understand these disparate data. […] In a similar manner, measurements of each patient's plasma theophylline level at each dosage of theophylline (at 200 mg, 400 mg, 600 mg of theophylline) were categorized. The two patient groups were also analyzed post hoc with respect to type of smell loss and etiology of smell loss."}, "asthmatic patients": {"test_system": "asthmatic patients", "test": "sGaw after dry powder inhalation, dose escalating single blind study (Examples 5 and 6)", "conditions": "2 mg theophylline", "experimental": "To test this theory, asthmatic patients are enrolled in a dose escalating single blind study. On arrival to the clinic, subjects are allowed to rest for 20 minutes before baseline measurements of FEV1 (six recordings) and sGaw (five recordings) are made. Subjects receive a dry powder dispenser loaded with a dose of 2 mg theophylline or a dry powder carrier. […] After each inhalation, measurements of sGaw are made at 1, 3, 5, 10, 15, 20, 25, and 30 minutes.\nOn completion of the last recording, subjects inhale a 200 μg dose of salbutamol from a metered inhaler and a further measurement of sGaw is made after 15 minutes. Subjects are also monitored for coughing and are questioned about the taste of the drug.\nAsthmatic patients are enrolled in a dose escalating single blind study. On arrival to the clinic, subjects are allowed to rest for 20 minutes before baseline measurements of FEV1 (six recordings) and sGaw (five recordings) are made. Subjects receive a dry powder dispenser loaded with a dose of 1 mg IBMX formulated as a dry powder or a dry powder carrier. […] After each inhalation, measurements of sGaw are made at 1, 3, 5, 10, 15, 20, 25, and 30 minutes.\nOn completion of the last recording, subjects inhale a 200 μg dose of salbutamol from a metered inhaler and a further measurement of sGaw mad after 15 minutes. Subjects are also be monitored for coughing and are questioned about the taste of the drug."}, "patients with hyposmia [4]": {"test_system": "patients with hyposmia", "test": "Classification of patients as improved or unimproved on theophylline (Example 2)", "assay_type": "in vivo, human", "experimental": "as §1, §2\nDifferences in the characteristics between these two patient groups were analyzed with respect to each measurement obtained (Mean±SEM). Differences between mean±SEM were analyzed using Student t test and X2; differences of p≤5% were considered significant."}, "patients with hyposmia [5]": {"test_system": "patients with hyposmia", "test": "Side effects of oral theophylline (Example 1)", "assay_type": "in vivo, human", "conditions": "divided doses in middle of meals", "description": "Patients were required to take the drug in divided doses in middle of meals (breakfast and lunch)."}, "[6]": {"conditions": "of 31 patients on oral theophylline 200-600 mg"}},
  "note": "Marks after values point to notes of the source that are not given here.",
  "data": [
    {"smiles": "Cn1c(=O)c2[nH]cnc2n(C)c1=O", "note": "[theophylline]", "values": [
      {"measurement": "hypogeusia (gustometry overall)", "setting": "[1]", "value": "improved after 2 to 12 months of treatment"},
      {"measurement": "DTs for sucrose and hydrochloride and RTs for sodium chloride, hydrochloride and urea", "setting": "[1]; 2 to 12 months", "value": "decreased (more sensitive)"},
      {"measurement": "HR for hydrochloride and urea", "setting": "[1]; 2 to 12 months", "value": "increased (more unpleasant)"},
      {"measurement": "magnitude estimations for all tastants", "setting": "[1]; 2 to 12 months", "value": "increased (more sensitive)"},
      {"measurement": "hyposmia (olfactometry overall)", "setting": "[2]", "value": "improved with 2 to 12 months of treatment"},
      {"measurement": "DTs and RTs for all odorants", "setting": "[2]; 2 to 12 months", "value": "decreased (more sensitive)"},
      {"measurement": "HRs for all odorants", "setting": "[2]; 2 to 12 months", "value": "increased"},
      {"measurement": "MEs for all odorants", "setting": "[2]; 2 to 12 months", "value": "increased (more sensitive)"},
      {"measurement": "concentrations at which anti-inflammatory effects are seen", "setting": "[3]", "value": "less than 10 mg/L"},
      {"measurement": "increase of saliva cAMP above baseline", "setting": "cAMP; improved patients, oral 200 mg, not significant", "value": 10, "unit": "%"},
      {"measurement": "increase of saliva cAMP over baseline", "setting": "cAMP; improved patients, oral 400 mg, not statistically significant", "value": 40, "unit": "%"},
      {"measurement": "increase of saliva cAMP above initial values", "setting": "cAMP; improved patients, oral 600 mg, significant", "value": 67, "unit": "%"},
      {"measurement": "parotid saliva cAMP", "setting": "cAMP; patients with improved smell function, oral 200 mg (16 patients)", "value": "0.96 ± 0.13", "unit": "pmol/mL"},
      {"measurement": "parotid saliva cAMP", "setting": "cAMP; patients with unimproved smell function, oral 200 mg (9 patients)", "value": "0.78 ± 0.26", "unit": "pmol/mL"},
      {"measurement": "parotid saliva cAMP", "setting": "cAMP; patients with unimproved smell function, oral 400 mg (5 patients)", "value": "0.95 ± 0.26", "unit": "pmol/mL"},
      {"measurement": "parotid saliva cAMP", "setting": "cAMP; patients with unimproved smell function, oral 600 mg (9 patients)", "value": "0.56 ± 0.21", "unit": "pmol/mL"},
      {"measurement": "increase in sGaw compared with 200 μg salbutamol", "setting": "asthmatic patients", "value": "comparable to that produced by salbutamol"},
      {"measurement": "sGaw above the baseline measurement after 30 minutes", "setting": "asthmatic patients", "value": 20, "unit": "%"},
      {"measurement": "taste and coughing of the dry powder formulation", "setting": "asthmatic patients", "value": "without the unpleasant taste or the induction of coughing"},
      {"measurement": "time until sGaw baseline is reached", "setting": "asthmatic patients", "value": 1, "unit": "h"},
      {"measurement": "patients identified as having improved smell function", "setting": "patients with hyposmia [4]; [6]", "value": 20, "unit": "patients"},
      {"measurement": "patients who did not improve", "setting": "patients with hyposmia [4]; [6]", "value": 11, "unit": "patients"},
      {"measurement": "improved patients exhibiting Type II hyposmia", "setting": "patients with hyposmia [4]; oral theophylline, Example 2", "value": 95, "unit": "%"},
      {"measurement": "patient number, improved, etiology PIHH", "setting": "patients with hyposmia [4]; oral theophylline, Example 2", "value": 6},
      {"measurement": "patient number, improved, etiology allergic rhinitis (AR)", "setting": "patients with hyposmia [4]; oral theophylline, Example 2", "value": 8},
      {"measurement": "patient number, improved, etiology head injury (HI)", "setting": "patients with hyposmia [4]; oral theophylline, Example 2", "value": 3},
      {"measurement": "patient number, improved, etiology other", "setting": "patients with hyposmia [4]; oral theophylline, Example 2", "value": 3},
      {"measurement": "patient number, improved, smell loss Type I", "setting": "patients with hyposmia [4]; oral theophylline, Example 2", "value": 1},
      {"measurement": "patient number, improved, smell loss Type II", "setting": "patients with hyposmia [4]; oral theophylline, Example 2", "value": "19^a"},
      {"measurement": "patient number, unimproved, etiology PIHH", "setting": "patients with hyposmia [4]; oral theophylline, Example 2", "value": 0},
      {"measurement": "patient number, unimproved, etiology allergic rhinitis (AR)", "setting": "patients with hyposmia [4]; oral theophylline, Example 2", "value": 8},
      {"measurement": "patient number, unimproved, etiology head injury (HI)", "setting": "patients with hyposmia [4]; oral theophylline, Example 2", "value": 3},
      {"measurement": "patient number, unimproved, etiology other", "setting": "patients with hyposmia [4]; oral theophylline, Example 2", "value": 0},
      {"measurement": "patient number, unimproved, smell loss Type I", "setting": "patients with hyposmia [4]; oral theophylline, Example 2", "value": 4},
      {"measurement": "patient number, unimproved, smell loss Type II", "setting": "patients with hyposmia [4]; oral theophylline, Example 2", "value": 7},
      {"measurement": "unimproved patients exhibiting Type I hyposmia", "setting": "patients with hyposmia [4]; oral theophylline, Example 2", "value": 57, "unit": "%"},
      {"measurement": "side effects among patients", "setting": "patients with hyposmia [5]", "value": "generally minimal"}
    ]}
  ]
}
